In ChEMBL document CHEMBL3877309, “Determination of binding modes and binding constants for the complexes of 6H-pyrido[4,3-b]carbazole derivatives with DNA” (Bioorg Med Chem, 2017):
pIC50: −log10 of the molar value. The source made the active and inactive calls. No cut-off for these calls is given here.

Experiments:
Salmonidae = assay: Binding affinity to salmon sperm DNA assessed as DNA intercalation at 0.04 mole fraction after 5 mins by UV-Vis spectroscopic method
[1] = Cytotoxicity against mouse Sarcoma 180 cells assessed as reduction in cell viability after 72 hrs by MTT assay; assay type: functional, cell-based; settings: Sarcoma-180, 72 h
[2] = Cytotoxicity against mouse NIH/3T3 cells assessed as reduction in cell viability after 72 hrs by MTT assay; assay type: toxicity, cell-based, NIH3T3
[3] = Cytotoxicity against human HeLaS3 cells assessed as reduction in cell viability after 72 hrs by MTT assay; assay type: functional, cell-based; settings: HeLa S3, 72 h
[4] = Selectivity index, ratio of IC50 for mouse NIH/3T3 cells to IC50 for mouse Sarcoma 180 cells; assay type: functional
HeLa S3 = assay: Selectivity ratio of IC50 for human HeLaS3 cells to IC50 for mouse Sarcoma 180 cells; assay type: functional
[5] = Binding affinity to synthetic biotin-labeled 30-mer GC-rich duplex DNA in pH 7.4 EDTA buffer solution in presence of 0.05 M NaCl at 25 degC by QCM sensogram analysis
[6] = Binding affinity to synthetic biotin-labeled 30-mer AT-rich duplex DNA in pH 7.4 EDTA buffer solution in presence of 0.05 M NaCl at 25 degC by QCM sensogram analysis
[7] = Binding affinity to synthetic biotin-labeled 30-mer GC-rich duplex DNA in pH 7.4 EDTA buffer solution in presence of 200 mM NaCl at 25 degC by QCM sensogram analysis
[8] = Binding affinity to synthetic biotin-labeled 30-mer GC-rich duplex DNA in pH 7.4 EDTA buffer solution in presence of 50 mM NaCl at 25 degC by QCM sensogram analysis
[9] = Ratio of Ka for synthetic biotin-labeled 30-mer GC-rich duplex DNA in presence of 200 mM NaCl to Ka for synthetic biotin-labeled 30-mer GC-rich duplex DNA in presence of 50 mM NaCl
[10] = Binding affinity to synthetic biotin-labeled 30-mer GC-rich duplex DNA in pH 7.8 Tris-Hcl buffer solution assessed as association rate constant in presence of 0.1 M NaCl at 25 degC by QCM sensogram analysis
[11] = Binding affinity to synthetic biotin-labeled 30-mer GC-rich duplex DNA in pH 7.8 Tris-Hcl buffer solution assessed as ratio of association rate constant to dissociation rate constant in presence of 0.1 M NaCl at 25 degC by QCM sensogram analysis
[12] = Binding affinity to synthetic biotin-labeled 30-mer AT-rich duplex DNA in pH 7.8 Tris-Hcl buffer solution assessed as association rate constant in presence of 0.1 M NaCl at 25 degC by QCM sensogram analysis
[13] = Binding affinity to synthetic biotin-labeled 30-mer GC-rich duplex DNA in pH 7.8 Tris-Hcl buffer solution assessed as dissociation rate constant in presence of 0.1 M NaCl at 25 degC by QCM sensogram analysis
[14] = Binding affinity to synthetic biotin-labeled 30-mer AT-rich duplex DNA in pH 7.8 Tris-Hcl buffer solution assessed as dissociation rate constant in presence of 0.1 M NaCl at 25 degC by QCM sensogram analysis
[15] = Binding affinity to synthetic biotin-labeled 30-mer AT-rich duplex DNA in pH 7.8 Tris-Hcl buffer solution assessed as ratio of association rate constant to dissociation rate constant in presence of 0.1 M NaCl at 25 degC by QCM sensogram analysis
[16] = Binding affinity to synthetic biotin-labeled 30-mer GC-rich duplex DNA in pH 7.4 EDTA buffer solution assessed as dissociation rate constant in presence of 0.05 M NaCl at 25 degC by QCM sensogram analysis
[17] = Binding affinity to synthetic biotin-labeled 30-mer GC-rich duplex DNA in pH 7.4 EDTA buffer solution assessed as association rate constant in presence of 0.05 M NaCl at 25 degC by QCM sensogram analysis
[18] = Binding affinity to synthetic biotin-labeled 30-mer AT-rich duplex DNA in pH 7.4 EDTA buffer solution assessed as dissociation rate constant in presence of 0.05 M NaCl at 25 degC by QCM sensogram analysis
[19] = Binding affinity to synthetic biotin-labeled 30-mer AT-rich duplex DNA in pH 7.4 EDTA buffer solution assessed as ratio of association rate constant to dissociation rate constant in presence of 0.05 M NaCl at 25 degC by QCM sensogram analysis
[20] = Binding affinity to synthetic biotin-labeled 30-mer AT-rich duplex DNA in pH 7.4 EDTA buffer solution assessed as association rate constant in presence of 0.05 M NaCl at 25 degC by QCM sensogram analysis
[21] = Binding affinity to synthetic biotin-labeled 30-mer GC-rich duplex DNA in pH 7.4 EDTA buffer solution assessed as ratio of association rate constant to dissociation rate constant in presence of 0.05 M NaCl at 25 degC by QCM sensogram analysis

SMILES | Activity (Salmonidae) | pIC50 [1] | IC50 at 72 h [2] [µM] | pIC50 [3] | further results
Cc1c2ccncc2c(C)c2c1[nH]c1ccccc12 [ELLIPTECINE] | Active | 5.70 | 0.3 | 5.68 | 
COC(=O)c1c2cc[n+](CCNCCN)cc2c(C)c2c1[nH]c1ccccc12 | Active | 5.92 | 1.87 |  | 
CNC(=O)NCCCCCNC(=O)c1c2cc[n+](C)cc2c(C)c2c1[nH]c1ccccc12 | Active | 4.10 | 37 | < 4.00 | 
Cc1c2c[n+](C)ccc2c(C(=O)NCCCCCN)c2[nH]c3ccccc3c12 | Active | 4.68 | 32 | < 4.00 | 
Cc1c2c[n+](CCCCCN)ccc2c(C)c2c1c1cc(O)ccc1n2C.[Cl-] | Active | 5.85 |  |  | Ratio IC50 [4]: 3 - 24; Ratio IC50 (HeLa S3): 13 - 37
CNC(=O)NCCOCC[n+]1ccc2c(C)c3c(c(C)c2c1)c1cc(O)ccc1n3C | Active | 5.57 | 1.6 |  | 
CNC(=O)NCCCNC(=O)c1c2cc[n+](C)cc2c(C)c2c1[nH]c1ccccc12 | Active | 4.47 | 31 | < 4.66 | 
Cc1c2cc[n+](CCOCCN)cc2c(C)c2c1[nH]c1ccc(O)cc12.[Cl-] | Active | 6.00 | 2.4 |  | Ratio IC50 [4]: 3 - 24; Ratio IC50 (HeLa S3): 13 - 37
CNC(=O)NCCOCC[n+]1ccc2c(C(=O)OC)c3[nH]c4ccccc4c3c(C)c2c1 | Active |  |  |  | Ka [5]: 14.8 ×10⁵ /M; Ka [6]: 7.41 ×10⁵ /M
CNC(=O)NCCCCC[n+]1ccc2c(C)c3c(c(C)c2c1)c1cc(O)ccc1n3C |  |  |  |  | Ka [5]: 28.5 ×10⁵ /M; Ka [7]: 17.9 ×10⁵ /M; Ka [8]: 28.5 ×10⁵ /M; Ratio [9]: 0.4 to 0.5; Ka [6]: 15.8 ×10⁵ /M
Cc1c2cnccc2c(C)c2c1c1ccccc1n2C | Active | 6.30 |  | 6.03 | 
COc1ccc2[nH]c3c(C(=O)NCCN)c4ccncc4c(C)c3c2c1 |  |  |  | 5.98 | 
CNC(=O)NCCNC(=O)c1c2ccncc2c(C)c2c1[nH]c1ccc(OC)cc12 |  |  |  | 5.12 | 
CNC(=O)NCCCCNC(=O)c1c2cc[n+](C)cc2c(C)c2c1[nH]c1ccccc12 | Active | < 4.06 | > 100 | 4.02 | 
Cc1c2c[n+](CCOCCN)ccc2c(C)c2c1c1cc(O)ccc1n2C | Active |  |  |  | Ka [5]: 311 ×10⁵ /M; Ka [7]: 162 ×10⁵ /M; Ka [8]: 311 ×10⁵ /M; Ratio [9]: 0.4 to 0.5; Ka [6]: 102 ×10⁵ /M
COC(=O)c1c2cc[n+](CCOCCN)cc2c(C)c2c1[nH]c1ccccc12.[Cl-] | Active | 5.95 | 1.75 |  | Ratio IC50 [4]: 3 - 24; Ratio IC50 (HeLa S3): 13 - 37
Cc1c2c[n+](C)ccc2c(C(=O)NCCCCN)c2[nH]c3ccccc3c12 | Active | < 4.00 | > 100 | < 4.00 | 
CNC(=O)NCCOCC[n+]1ccc2c(C)c3[nH]c4ccccc4c3c(C)c2c1 | Active |  |  |  | Ka [5]: 9.9 ×10⁵ /M; Ka [7]: 5.99 ×10⁵ /M; Ka [8]: 9.92 ×10⁵ /M; Ratio [9]: 0.4 to 0.5; Ka [6]: 3.59 ×10⁵ /M
Cc1c2c[n+](C)ccc2c(C(=O)NCCOCCN)c2[nH]c3ccccc3c12 | Active | 4.32 | 60 | < 4.00 | 
COc1ccc2[nH]c3c(C(=O)NCCN)c4cc[n+](C)cc4c(C)c3c2c1 | Active | 4.24 |  | < 4.00 | 
Cc1c2cc[n+](CCN)cc2c(C)c2c1[nH]c1ccccc12 | Active | 5.49 |  | 5.18 | 

SMILES | Activity (Salmonidae) | pIC50 [1] | IC50 at 72 h [2] [µM] | pIC50 [3] | further results
COC(=O)c1c2cc[n+](C)cc2c(C)c2c1[nH]c1ccccc12 | Active | 6.00 | 1.2 | 5.92 | 
Cc1c2cc[n+](C)cc2c(C)c2c1[nH]c1ccccc12 | Active | 6.15 | 2 | 5.54 | 
CNC(=O)NCCCCNC(=O)c1c2ccncc2c(C)c2c1[nH]c1ccccc12 |  |  |  |  | Ka [5]: 0.427 ×10⁵ /M; Ka [6]: 0.185 ×10⁵ /M
CC[n+]1c(-c2ccccc2)c2cc(N)ccc2c2ccc(N)cc21 |  |  |  |  | K [10]: 1.2 ×10⁴ /M/s; Ratio [11]: 0.056 ×10⁶ /M; K [12]: 0.17 ×10⁴ /M/s; K [13]: 210 ×10⁻³ /s; K [14]: 150 ×10⁻³ /s; Ratio [15]: 0.011 ×10⁶ /M
CNC(=O)NCCNCCNC(=O)c1c2cc[n+](C)cc2c(C)c2c1[nH]c1ccccc12 |  | 4.11 | 45 | < 4.00 | 
Cc1c2ccncc2c(C)c2c1[nH]c1ccc(O)cc12 | Active | 6.36 | 0.9 |  | 
Cc1c2cnccc2c(C(=O)NCCN)c2[nH]c3ccccc3c12 | Active | 5.66 | 1.4 | 5.62 | 
Cc1c2cc[n+](C)cc2c(C)c2c1[nH]c1ccc(O)cc12 | Active |  |  |  | K [16]: 2.01 ×10⁻³ /s; K [17]: 1.28 ×10⁴ /M/s; Ka [5]: 47.2 ×10⁵ /M; K [18]: 8.05 ×10⁻³ /s; Ratio [19]: 0.97 ×10⁶ /M; K [20]: 0.78 ×10⁴ /M/s; Ratio [21]: 6.37 ×10⁶ /M; Ka [6]: 35.1 ×10⁵ /M
Cc1c2c[n+](C)ccc2c(C(=O)NCCCN)c2[nH]c3ccccc3c12 | Active | 4.59 | 42 | < 4.59 | 
Cc1c2c[n+](C)ccc2c(C(=O)NCCN)c2[nH]c3ccccc3c12 | Active | 4.26 | 70 | < 4.00 | 
Cc1c2cnccc2c(C(=O)NCCCCN)c2[nH]c3ccccc3c12 |  |  |  |  | Ka [5]: 0.733 ×10⁵ /M; Ka [6]: 0.279 ×10⁵ /M
Cc1c2c[n+](C)ccc2c(C(=O)NCCNCCN)c2[nH]c3ccccc3c12 | Active | < 4.00 | 86 |  | 
CNC(=O)NCCOCCNC(=O)c1c2cc[n+](C)cc2c(C)c2c1[nH]c1ccccc12 | Active | 4.39 | 18 |  | 
CNC(=O)NCCNC(=O)c1c2cc[n+](C)cc2c(C)c2c1[nH]c1ccccc12 | Active | < 4.00 | > 100 | < 4.00 | 
Cc1c2cc[n+](CCOCCN)cc2c(C)c2c1[nH]c1ccccc12.[Cl-] | Active | 6.10 | 8.8 |  | Ratio IC50 [4]: 3 - 24; Ratio IC50 (HeLa S3): 13 - 37
CNC(=O)NCCNC(=O)c1c2ccncc2c(C)c2c1[nH]c1ccccc12 | Active | 4.82 | 11 | 4.82 | 
CNC(=O)NCCNC(=O)c1c2cc[n+](C)cc2c(C)c2c1[nH]c1ccc(OC)cc12 | Active |  |  | 4.49 | 
CNC(=O)NCCOCC[n+]1ccc2c(C)c3[nH]c4ccc(O)cc4c3c(C)c2c1.[Cl-] | Active | 5.66 | 5 |  | Ratio IC50 [4]: 3 - 24; Ratio IC50 (HeLa S3): 13 - 37
Cc1c2c[n+](CCN)ccc2cc2[nH]c3ccccc3c12 | Active |  |  |  | Ka [5]: 8.33 ×10⁵ /M; Ka [6]: 4.29 ×10⁵ /M
COC(=O)c1c2cc[n+](CCN)cc2c(C)c2c1[nH]c1ccccc12.[Cl-] | Active | 6.28 | 0.78 |  | Ratio IC50 [4]: 3 - 24; Ratio IC50 (HeLa S3): 13 - 37
